Measured values: US20170152263A1, “Substituted Indazole Compounds as IRAK4 Inhibitors” (AURIGENE DISCOVERY TECHNOLOGIES LIMITED, priority 2014, published 2017)
Where a name gives a salt, the structure may show the parent alone.

Target: T1, recombinant IRAK-4 kinase (Homo sapiens, UniProt Q9NWZ3)
T1 construct: purchased Millipore, USA
T1 sequence (Q9NWZ3 1-460): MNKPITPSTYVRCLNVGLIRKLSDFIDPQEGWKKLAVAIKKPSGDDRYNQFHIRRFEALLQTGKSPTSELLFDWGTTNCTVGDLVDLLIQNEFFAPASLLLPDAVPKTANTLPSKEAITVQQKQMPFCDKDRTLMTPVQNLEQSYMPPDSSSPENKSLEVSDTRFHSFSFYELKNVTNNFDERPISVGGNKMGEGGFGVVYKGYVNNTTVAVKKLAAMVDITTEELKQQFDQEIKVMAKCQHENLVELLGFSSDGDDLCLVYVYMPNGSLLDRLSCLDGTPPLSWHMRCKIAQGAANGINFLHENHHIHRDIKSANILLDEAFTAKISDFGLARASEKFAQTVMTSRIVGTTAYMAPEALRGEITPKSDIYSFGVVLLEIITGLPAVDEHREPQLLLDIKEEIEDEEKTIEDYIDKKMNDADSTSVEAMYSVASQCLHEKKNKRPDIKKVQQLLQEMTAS
Assay: IRAK-4 biochemical assay (TR-FRET)
Conditions: IRAK-4 enzyme, 20 μM ATP; for inhibition at 0.1 µM: compound at 0.1 μM; for inhibition at 1 µM: compound at 1 μM; for IC50: dose response
Description: Compounds were tested for their potential to inhibit IRAK-4 enzyme in a TR-FRET assay using recombinant IRAK-4 kinase from Millipore, USA. The assay buffer was 50 mM Tris-HCl pH 7.5, 20 mM MgCl2, 1 mM EGTA, 2 mM DTT, 3 mM MnCl2 and 0.01% Tween 20.5 ng of IRAK-4 kinase was used for the assay. After pre-incubation of enzyme with test compound for 30 minutes at room temperature, a substrate mixture containing 100 nM Biotin Histone H3 (Millipore, USA) and 20 μM ATP (Sigma, USA) was added and the reaction was incubated for 30 min. Post incubation, the reaction was stopped by the addition of stop mix containing 40 mM EDTA, 1 nM of Europium-Anti-Phospho-Histone H3 (Ser10) antibody (Perkin Elmer, USA) and 20 nM SureLight Allophycocyanin-Streptavidin (Perkin Elmer, USA). The fluorescence emission at 615 nm and 665 nm were measured at an excitation of 340 nm and the percent inhibition was estimated from the ratio of the fluorescence intensities [(F665/F615)×10000]. […] The IC50 values were estimated by fitting the dose-response data to sigmoidal dose response (variable slope), curve fitting program using Graphpad Prism software Version 6.01.

Row | inhibition at 0.1 µM | inhibition at 1 µM | IC50 | Compound
1 | 45% | 93% | 100 to 250 nM | Cc1nccc(-c2nc(C(=O)Nc3cc4c(cnn4C)cc3N3CC[C@H](O)C3)co2)n1 [Example 35, (S)—N—(5-(3-hydroxypyrrolidin-1-yl)-1-methyl-1H-indazol-6-yl)-2-(2-methylpyrimidin-4-yl)oxazole-4-carboxamide hydrochloride]
2 | 94% |  | < 100 nM | Cc1cc(-c2nc(C(=O)Nc3cc4c(cnn4C)cc3N3CCCC(O)C3)co2)ccn1 (centres unmarked) [Example 12, N—(5-(3-hydroxypiperidin-1-yl)-1-methyl-1H-indazol-6-yl)-2-(2-methylpyridin-4-yl)oxazole-4-carboxamide hydrochloride]
3 | 49% | 92% | 100 to 250 nM | Cc1cc(-c2ncc(C(=O)Nc3cc4c(cnn4C)cc3N3CC[C@H](O)C3)o2)ccn1 [Example 39, (S)—N—(5-(3-hydroxypyrrolidin-1-yl)-1-methyl-1H-indazol-6-yl)-2-(2-methylpyridin-4-yl)oxazole-5-carboxamide]
